Values belong to the compound of their own block, whether it stands above or below them.
Assays:
[1] = tested on: Epstein-Barr virus-early antigen; details: in vitro; cited from earlier work
[2] = tested on: heme oxygenase-1 (HO-1); details: oral administration; cited from earlier work
[3] = tested on: NAD(P)H:quinone oxidoreductase 1 (NQO1) gene expression; test: NQO1 gene expression in RAW 264.7 macrophage cell line, quantitative RT-PCR (Examples 6, 7, 11); assay type: cell-based; details: 0.5 μM SFN; 24 hours
Method: In the study, the macrophage cell line RAW 264.7 was treated with dimethyl sulfoxide (DMSO) (vehicle control), sulforaphane (SFN), a maitake mushroom extract having about 20% beta-glucan content (Maitake), or the combination of sulforaphane and the maitake mushroom extract, for 24 hours. In particular, the cells were treated with one of the following: (i) DMSO (vehicle control), (ii) 0.5 μM SFN, (iii) 250 μg/mL Maitake, (iv) 500 μg/mL Maitake, (v) 750 μg/mL Maitake, (vi) 0.5 μM SFN and 250 μg/mL Maitake, (vii) 0.5 μM SFN and 500 μg/mL Maitake, and (viii) 0.5 μM SFN and 750 μg/mL Maitake. The gene expression of NQO-1 was analyzed via quantitative RT-PCR. The results, which are depicted in FIG. 2, show the following:
In the study, the macrophage cell line RAW 264.7 was treated with DMSO (vehicle control), sulforaphane (SFN), a shiitake mushroom extract having at least 20% alpha-glucan content (Shiitake), or the combination of sulforaphane and the shiitake mushroom extract, for 24 hours. […] The gene expression of NQO1 was analyzed via quantitative RT-PCR. […]
In the study, the macrophage cell line RAW 264.7 was treated with sulforaphane (SFN), Moringa plant components (MOR), or a combination of SFN and MOR, for 24 hours. […] The gene expression of NQO1 was analyzed via quantitative RT-PCR. […]

[4] = tested on: NAD(P)H:quinone oxidoreductase (NQO1); details: oral administration; cited from earlier work
[5] = tested on: mammary tumors; details: rat, in vivo; cited from earlier work
[6] = tested on: myrosinase; test: Conversion of glucoraphanin to sulforaphane in Simulated Intestinal Fluid (Example 5); assay type: biochemical, broccoli; details: 38° C., ascorbic acid 0.25 to 1.00 mmol/Liter, FIG. 1
Method: Simulated Intestinal Fluid (SIF) powder, a commercially supplied concentrate closely approximating the human intestinal content in terms of composition, pH and ionic strength, was used. The experiment utilized a USP Dissolution Apparatus 2 (paddles), where into six dissolution vessels 500 mL of Simulated Intestinal Fluid was dispensed, along with 150 mg of freeze-dried broccoli sprout powder as a source of myrosinase. […] Aliquots were withdrawn every 15 minutes, and assayed for sulforaphane.

[7] = tested on: broccoli sprout-derived myrosinase; test: Consumption of glucoraphanin by myrosinase as a function of ascorbic acid concentration (Example 3); assay type: biochemical; details: 600 μmoles/Liter ascorbic acid
Method: A […] Interaction Chromatographic (HILIC) method was developed, comprising the following conditions: • Column: Waters BEH Amide, 1.7-μm particle size; 2.1 mm×100 mm; • Mobile Phase: 20% 10 mM Ammonium Acetate, pH 5.0; 80% acetonitrile; • Separation mode: isocratic; • Column Temperature: 70° C.; • Flow Rate: 0.7 mL/min.
About 250 mg of broccoli seed extract containing about 12% (w/w) glucoraphanin were subjected to hydrolysis by a fixed concentration of broccoli sprout-derived myrosinase in the presence of variable concentration of ascorbic acid, ranging from 0 to 600 μmoles/Liter. The reaction mixtures were thermostated at 38° C.; aliquots were withdrawn every 15 minutes for 60 minutes, and concentration of glucoraphanin determined chromatographically. The rate of glucoraphanin consumption was interpreted as the rate its conversion to sulforaphane. Graphical representation of glucoraphanin content reduction as a function of increasing ascorbic acid concentration results in a series of linear plots; the slopes of the linear regression lines reflect the rate of glucoraphanin consumption, in pmoles/minute. It is apparent that in the presence of 600 μmoles/Liter concentration of ascorbic acid, the reaction rate increased 13-fold relative to that which proceeded in the absence of modulatory effects of ascorbic acid.

[8] = tested on: myrosinase; test: Equimolar conversion of glucoraphanin to sulforaphane by myrosinase, HPLC (Example 4); assay type: biochemical, broccoli; details: PART 2, broccoli seed extract 250 mg
Method: A two-part experiment was conducted to further elucidate the role of ascorbic acid in modulating myrosinase activity. All solutions were prepared in 20 mM Tris-buffered saline, at pH 7.5, previously identified as an optimal for myrosinase activity; each sample tube had 100 mg of freeze-dried broccoli powder accurately weighed in as a source of myrosinase. Experiment was conducted at 38° C. for 2 hours, with sample aliquots removed in 30-minute increments, and both glucoraphanin and sulforaphane content assessed by HPLC. […] A control sample contained no ascorbic acid, and the enzymatic conversion proceeded unassisted by a co-factor. PART 1. In the presence of the fixed concentration of ascorbic acid, 1 mmol/Liter, an increasing amount of broccoli seed extract (about 12% glucoraphanin, w/w) was added, ranging from 250 mg to 500 mg. PART 2. While keeping the amount of broccoli seed extract fixed at 250 mg, the concentration of ascorbic acid was varied from 0.4 mmol/Liter to 3.8 mmol/Liter.

SMILES: CCCCCCCCC=CCCCCCCCC(=O)OCC1OC(OC2CCC3(C)C(=CCC4C3CCC3(C)C(C(C)CCC(CC)C(C)C)CCC43)C2)C(O)C(O)C1O [3-O-(6′-O-oleoyl-β-D-glucopyranosyl)-β-sitosterol]
inhibitory effects on Epstein-Barr virus-early antigen [1]: significant inhibitory effects

SMILES: C[C@@H]1O[C@@H](Oc2ccc(CN=C=S)cc2)[C@H](O)[C@H](O)[C@H]1O [4(α-L-rhamnosyloxy)-benzyl isothiocyanate]
inhibitory effects on Epstein-Barr virus-early antigen [1]: significant inhibitory effects

SMILES: CCOC(=O)NCc1ccc(O[C@@H]2O[C@@H](C)[C@H](O)[C@@H](O)[C@H]2O)cc1 [O-Ethyl-4-(α-L-rhamnosyloxy)benzyl carbamate]
inhibitory effects on Epstein-Barr virus-early antigen [1]: significant inhibitory effects

SMILES: C[S+]([O-])CCCCN=C=S (centres unmarked) [SFN, 1-isothiocyanato-4-methylsulfinylbutane]
elevated immunostaining of HO-1 in the mammary epithelium [2]: 4 fold | Fold increase in NQO-1 gene expression [3]: 12.96 | increase in NQO1 enzymatic activity in the mammary epithelium [4]: 3 fold | blocking the formation of mammary tumors [5]: effective in blocking the formation of mammary tumors

ascorbic acid concentration up to which myrosinase-promoted conversion increases linearly, then levels off [8]: about 2 mmol/L
SMILES: O=C1O[C@H]([C@@H](O)CO)C(O)=C1O [ascorbic acid]
yield of sulforaphane versus ascorbic acid concentration [6]: direct correlation between larger yield of sulforaphane and higher concentrations of ascorbic acid | increase of reaction rate relative to absence of ascorbic acid [7]: 13 fold

SMILES: CCOC(=S)NCc1ccc(OC2OC(C)C(O)C(O)C2O)cc1 (centres unmarked) [niazimicin]
inhibitory effects on Epstein-Barr virus-early antigen [1]: significant inhibitory effects

Source: US12648979B2, “Compositions comprising sulforaphane or a sulforaphane precursor and Moringa plant components” (Nutramax Laboratories, Inc., priority 2021, dated 2026)
